From ChEMBL document CHEMBL1944622, “Constituents of Dalbergia sissoo Roxb. leaves with osteogenic activity” (Bioorg Med Chem Lett, 2012)
Calls of active or inactive are those of the source. The rule behind the calls is not given here.

Assays:
Calvarial osteoblast [1] = assay: Osteogenic activity in rat primary calvarial osteoblasts assessed as induction of ALP activity at 1 pM to 1 uM after 10 days by colorimetry; type: functional, cell-based
Calvarial osteoblast [2] = assay: Osteogenic activity in rat primary calvarial osteoblasts assessed as induction of ALP activity at 1 pM to 1 uM after 10 days by colorimetry in presence of anti-estrogen ICI-182780; type: functional, cell-based
Calvarial osteoblast [3] = assay: Induction of rat calvarial osteoblast mineralization assessed as increase in formation of mineralized calcium nodules at 10 nM after 21 days by alizarin red-S staining-based assay; type: functional, cell-based
[4] = Toxicity in rat calvarial osteoblast cells at 1 pM to 1 uM after 48 hrs by MTT assay; type: cell-based
Ishikawa [5] = assay: Antiestrogenic activity in ER expressing human Ishikawa cells assessed as inhibition of ALP activity at 1 pM to 1 uM; type: functional, cell-based
Ishikawa [6] = assay: Estrogenic activity in ER expressing human Ishikawa cells assessed as induction of ALP activity at 1 pM to 1 uM; type: functional, cell-based
[7] = Upregulation of BMP-2 in rat primary calvarial osteoblast cells after 48 hrs by qPCR analysis relative to control; type: functional, cell-based
Ishikawa [8] = assay: Estrogenic activity in ER expressing human Ishikawa cells assessed as induction of ALP activity at 1 pM to 1 uM in presence of 17beta-E2; type: functional, cell-based
Ishikawa [9] = assay: Estrogenic activity in ER expressing human Ishikawa cells assessed as induction of ALP activity at 10 nM; type: functional, cell-based
Calvarial osteoblast [10] = assay: Osteogenic activity in rat calvarial osteoblasts assessed as induction of ALP activity at 10 nM after 48 hrs by spectrophotometry in presence of anti-estrogen ICI-182780; type: functional, cell-based
Ishikawa [11] = assay: Estrogenic activity in ER expressing human Ishikawa cells assessed as induction of ALP activity at 100 pM relative to control; type: functional
Rattus norvegicus [12] = assay: Osteogenic activity in rat assessed as increase in collagen-1 expression in calvaria at 1 mg/kg, sc qd for 3 days by qPCR analysis; type: functional, organism-based; set-up: dose 1 mg/kg
Rattus norvegicus [13] = assay: Osteogenic activity in rat assessed as increase in collagen-1 expression in calvaria at 10 mg/kg, sc qd for 3 days by qPCR analysis; type: functional, organism-based; set-up: dose 10 mg/kg
Rattus norvegicus [14] = assay: Osteogenic activity in rat assessed as increase in ALP expression in calvaria at 1 mg/kg, sc qd for 3 days by qPCR analysis; type: functional, organism-based; set-up: dose 1 mg/kg
Calvarial osteoblast [15] = assay: Osteogenic activity in rat primary calvarial osteoblasts assessed as induction of ALP activity at 1 pM after 10 days by colorimetry; type: functional, cell-based
Rattus norvegicus [16] = assay: Osteogenic activity in rat assessed as increase in collagen-1 expression in calvaria at 5 mg/kg, sc qd for 3 days by qPCR analysis; type: functional, organism-based; set-up: dose 5 mg/kg
Rattus norvegicus [17] = assay: Osteogenic activity in rat assessed as increase in ALP expression in calvaria administered as sc qd for 3 days by qPCR analysis; type: functional, organism-based
Calvarial osteoblast [18] = assay: Induction of rat calvarial osteoblast mineralization assessed as increase in formation of mineralized calcium nodules at 1 pM after 21 days by alizarin red-S staining-based assay; type: functional, cell-based
Rattus norvegicus [19] = assay: Osteogenic activity in rat assessed as increase in ALP expression in calvaria at 10 mg/kg, sc qd for 3 days by qPCR analysis; type: functional, organism-based; set-up: dose 10 mg/kg
Rattus norvegicus [20] = assay: Osteogenic activity in rat assessed as increase in ALP expression in calvaria at 5 mg/kg, sc qd for 3 days by qPCR analysis; type: functional, organism-based; set-up: dose 5 mg/kg

In the case of COc1cc(OC)c(-c2coc3cc(O[C@@H]4O[C@H](CO)[C@@H](O)[C@H](O)[C@H]4O)c(OC)c(O)c3c2=O)cc1OC, the Activity (Calvarial osteoblast [1]) was “inactive”.

With COc1ccc(-c2coc3cc(O[C@@H]4O[C@H](CO[C@@H]5OC[C@](O)(CO)[C@H]5O)[C@@H](O)[C@H](O)[C@H]4O)cc(O)c3c2=O)cc1 the Activity (Calvarial osteoblast [1]) was “inactive”.

In the case of C[C@@H]1O[C@@H](OC[C@H]2O[C@@H](Oc3c(-c4ccc(O)cc4)oc4cc(O)cc(O)c4c3=O)[C@H](O)[C@@H](O)[C@@H]2O)[C@H](O)[C@H](O)[C@H]1O, the Activity (Calvarial osteoblast [1]) was “inactive”.

For O=c1c(-c2ccc(O)cc2)coc2cc(O)cc(O)c12 [GENISTEIN], the Activity (Calvarial osteoblast [2]) was “Active”, the Activity (Calvarial osteoblast [1]) was “Active” and the Activity (Calvarial osteoblast [3]) was “Active”. The Activity [4] was “Non-toxic”, the Activity (Ishikawa [5]) was “inactive” and the Activity (Ishikawa [6]) was “inactive”. The fold change (FC) [7] was 5 and the inhibition (Ishikawa [8]) was “inactive”.

With COc1ccc(-c2coc3cc(O)cc(O)c3c2=O)cc1 [BIOCHANIN] the Activity (Calvarial osteoblast [1]) was “Active”, the Activity (Calvarial osteoblast [3]) was “Active” and the Activity [4] was “Non-toxic”. The Activity (Ishikawa [9]) was “Active” and the Activity (Calvarial osteoblast [10]) was “inactive”.

With COc1ccc(-c2coc3cc(O)cc(O)c3c2=O)cc1O [PRATENSEIN] the Activity (Calvarial osteoblast [2]) was “Active”, the Activity (Calvarial osteoblast [1]) was “Active” and the Activity (Calvarial osteoblast [3]) was “Active”. The Activity [4] was “Non-toxic”, the Activity (Ishikawa [5]) was “inactive” and the Activity (Ishikawa [6]) was “inactive”. For the same molecule, the inhibition (Ishikawa [8]) was “inactive”.

For COc1cc([C@H]2OC[C@H]3[C@@H]2CO[C@@H]3c2cc(OC)c(O[C@@H]3O[C@H](CO)[C@@H](O)[C@H](O)[C@H]3O)c(OC)c2)cc(OC)c1O, the Activity (Calvarial osteoblast [1]) was “inactive”.

In the case of O=c1c(O[C@@H]2O[C@H](CO)[C@@H](O)[C@H](O)[C@H]2O)c(-c2ccc(O)cc2)oc2cc(O)cc(O)c12, the Activity (Calvarial osteoblast [1]) was “inactive”.

With COc1cc(OC)c(-c2coc3cc(O)c(OC)c(O)c3c2=O)cc1OC the Activity (Calvarial osteoblast [1]) was “inactive”.

With COC(=O)C/C(=C\c1ccc(O)c(O)c1)C(=O)O the Activity (Calvarial osteoblast [1]) was “inactive”.

In the case of C[C@]12CC[C@@H]3c4ccc(O)cc4CC[C@H]3[C@@H]1CC[C@@H]2O [ESTRADIOL], the “fold change (FC)” value (Ishikawa [11]) was 1.5.

For COc1ccc(-c2coc3cc(O[C@@H]4O[C@H](CO[C@@H]5OC[C@](O)(CO[C@@H]6OC[C@](O)(CO)[C@H]6O)[C@H]5O)[C@@H](O)[C@H](O)[C@H]4O)cc(O)c3c2=O)cc1, the Activity (Calvarial osteoblast [1]) was “inactive”.

With C[C@@H]1O[C@@H](OC[C@H]2O[C@@H](Oc3c(-c4ccc(O)c(O)c4)oc4cc(O)cc(O)c4c3=O)[C@H](O)[C@@H](O)[C@@H]2O)[C@H](O)[C@H](O)[C@H]1O the Activity (Calvarial osteoblast [1]) was “inactive”.

With O=c1c(O[C@@H]2O[C@H](CO)[C@@H](O)[C@H](O)[C@H]2O)c(-c2ccc(O)c(O)c2)oc2cc(O)cc(O)c12 the Activity (Calvarial osteoblast [1]) was “inactive”.

In the case of COc1cc(OC)c(-c2coc3cc(O[C@@H]4O[C@H](CO[C@@H]5OC[C@](O)(CO)[C@H]5O)[C@@H](O)[C@H](O)[C@H]4O)c(OC)c(O)c3c2=O)cc1OC, the Activity (Calvarial osteoblast [2]) was “Active”, the Activity (Rattus norvegicus [12]) was “Active” and the Activity (Calvarial osteoblast [1]) was “Active”. The Activity (Rattus norvegicus [13]) was “inactive”, the Activity (Rattus norvegicus [14]) was “Active” and the Activity (Calvarial osteoblast [15]) was “Active”. The Activity [4] was “Non-toxic”, the Activity (Rattus norvegicus [16]) was “inactive” and the Activity (Rattus norvegicus [17]) was “Dose-dependent effect”. The Activity (Calvarial osteoblast [18]) was “Active”, the Activity (Ishikawa [5]) was “inactive” and the Activity (Rattus norvegicus [19]) was “inactive”. The Activity (Ishikawa [6]) was “inactive”, the Activity (Rattus norvegicus [20]) was “Active” and the fold change (FC) [7] was 15. For the same molecule, the inhibition (Ishikawa [8]) was “inactive”.
